Data: ChEMBL document CHEMBL1139057, “Rotenoids and flavonoids with anti-invasion of HT1080, anti-proliferation of U937, and differentiation-inducing activity in HL-60 from Erycibe expansa” (Bioorg Med Chem, 2007)

What was measured:
U-937 [1] = test: Antiproliferative activity against human U937 cells after 24 hrs by WST-8 assay; format: functional, cell-based; conditions: U-937, 24 h
U-937 [2] = test: Antiproliferative activity against human U937 cells after 48 hrs by WST-8 assay; format: functional, cell-based; conditions: U-937, 48 h
U-937 [3] = test: Antiproliferative activity against human U937 cells after 72 hrs by WST-8 assay; format: functional, cell-based; conditions: U-937, 72 h
HT-1080 [4] = test: Inhibition of invasion of human HT1080 cells at 1 uM after 24 hrs; format: functional; conditions: HT-1080, 24 h
HT-1080 [5] = test: Inhibition of invasion of human HT1080 cells at 3 uM after 24 hrs; format: functional; conditions: HT-1080, 24 h
HT-1080 [6] = test: Inhibition of invasion of human HT1080 cells at 10 uM after 24 hrs; format: functional; conditions: HT-1080, 24 h
HT-1080 [7] = test: Inhibition of invasion of human HT1080 cells at 30 uM after 24 hrs; format: functional; conditions: HT-1080, 24 h
HT-1080 [8] = test: Antiproliferative activity against human HT1080 cells at 1 uM after 24 hrs by MTT assay; format: functional; conditions: HT-1080, 24 h
HT-1080 [9] = test: Antiproliferative activity against human HT1080 cells at 3 uM after 24 hrs by MTT assay; format: functional; conditions: HT-1080, 24 h
HT-1080 [10] = test: Antiproliferative activity against human HT1080 cells at 10 uM after 24 hrs by MTT assay; format: functional; conditions: HT-1080, 24 h
HT-1080 [11] = test: Antiproliferative activity against human HT1080 cells at 30 uM after 24 hrs by MTT assay; format: functional; conditions: HT-1080, 24 h
HT-1080 [12] = test: Antiproliferative activity against human HT1080 cells at 1 uM after 48 hrs by MTT assay; format: functional; conditions: HT-1080, 48 h
HT-1080 [13] = test: Antiproliferative activity against human HT1080 cells at 3 uM after 48 hrs by MTT assay; format: functional; conditions: HT-1080, 48 h
HT-1080 [14] = test: Antiproliferative activity against human HT1080 cells at 10 uM after 48 hrs by MTT assay; format: functional; conditions: HT-1080, 48 h
HT-1080 [15] = test: Antiproliferative activity against human HT1080 cells at 30 uM after 48 hrs by MTT assay; format: functional; conditions: HT-1080, 48 h
HT-1080 [16] = test: Antiproliferative activity against human HT1080 cells at 1 uM after 72 hrs by MTT assay; format: functional; conditions: HT-1080, 72 h
HT-1080 [17] = test: Antiproliferative activity against human HT1080 cells at 3 uM after 72 hrs by MTT assay; format: functional; conditions: HT-1080, 72 h
HT-1080 [18] = test: Antiproliferative activity against human HT1080 cells at 10 uM after 72 hrs by MTT assay; format: functional; conditions: HT-1080, 72 h
HT-1080 [19] = test: Antiproliferative activity against human HT1080 cells at 30 uM after 72 hrs by MTT assay; format: functional; conditions: HT-1080, 72 h
HT-1080 [20] = test: Antiproliferative activity against human HT1080 cells at 1 uM after 24 hrs by calcein-AM assay; format: functional; conditions: HT-1080, 24 h
HT-1080 [21] = test: Antiproliferative activity against human HT1080 cells at 3 uM after 24 hrs by calcein-AM assay; format: functional; conditions: HT-1080, 24 h
HT-1080 [22] = test: Antiproliferative activity against human HT1080 cells at 10 uM after 24 hrs by calcein-AM assay; format: functional; conditions: HT-1080, 24 h
HT-1080 [23] = test: Antiproliferative activity against human HT1080 cells at 30 uM after 24 hrs by calcein-AM assay; format: functional; conditions: HT-1080, 24 h
HT-1080 [24] = test: Antiproliferative activity against human HT1080 cells at 1 uM after 48 hrs by calcein-AM assay; format: functional; conditions: HT-1080, 48 h
HT-1080 [25] = test: Antiproliferative activity against human HT1080 cells at 3 uM after 48 hrs by calcein-AM assay; format: functional; conditions: HT-1080, 48 h
HT-1080 [26] = test: Antiproliferative activity against human HT1080 cells at 10 uM after 48 hrs by calcein-AM assay; format: functional; conditions: HT-1080, 48 h
HT-1080 [27] = test: Antiproliferative activity against human HT1080 cells at 30 uM after 48 hrs by calcein-AM assay; format: functional; conditions: HT-1080, 48 h
HT-1080 [28] = test: Antiproliferative activity against human HT1080 cells at 1 uM after 72 hrs by calcein-AM assay; format: functional; conditions: HT-1080, 72 h
HT-1080 [29] = test: Antiproliferative activity against human HT1080 cells at 3 uM after 72 hrs by calcein-AM assay; format: functional; conditions: HT-1080, 72 h
HT-1080 [30] = test: Antiproliferative activity against human HT1080 cells at 10 uM after 72 hrs by calcein-AM assay; format: functional; conditions: HT-1080, 72 h
HT-1080 [31] = test: Antiproliferative activity against human HT1080 cells at 30 uM after 72 hrs by calcein-AM assay; format: functional; conditions: HT-1080, 72 h

O=C1C=C2OC[C@H]3c4cc5c(cc4O[C@H]3[C@@]2(O)CC1)OCO5
IC50 (U-937 [1]): > 100 µM
IC50 (U-937 [2]): > 100 µM
IC50 (U-937 [3]): > 100 µM

COc1ccc([C@@H]2CCc3c(OC)cc(OC)cc3O2)cc1
IC50 (U-937 [1]): 29 µM
IC50 (U-937 [2]): 21 µM
IC50 (U-937 [3]): 18 µM

COc1ccc2c(=O)c(-c3ccc(OC)c(OC)c3)coc2c1
IC50 (U-937 [1]): > 100 µM
IC50 (U-937 [2]): > 100 µM
IC50 (U-937 [3]): > 100 µM

COc1ccc2c(c1)O[C@@H]1[C@H]2COC2=CC(=O)CC[C@@]21O
IC50 (U-937 [1]): > 100 µM
IC50 (U-937 [2]): > 100 µM
IC50 (U-937 [3]): > 100 µM

COc1cc(OC)c2c(c1)O[C@H](c1ccc(O)cc1)CC2
IC50 (U-937 [1]): 39 µM
IC50 (U-937 [2]): 40 µM
IC50 (U-937 [3]): 10 µM

COc1cc(O)c(-c2coc3cc(O)ccc3c2=O)cc1OC
IC50 (U-937 [1]): > 100 µM
IC50 (U-937 [2]): 72 µM
IC50 (U-937 [3]): 48 µM

COc1cc(-c2coc3cc(O)cc(O)c3c2=O)ccc1O [3'-O-METHYLOROBOL]
IC50 (U-937 [1]): 68 µM
IC50 (U-937 [2]): 85 µM
IC50 (U-937 [3]): 74 µM

CC1(C)C=Cc2c(cc3occ(-c4ccc(O)cc4)c(=O)c3c2O)O1 [ALPINUMISOFLAVONE]
IC50 (U-937 [1]): 35 µM
IC50 (U-937 [2]): 32 µM
IC50 (U-937 [3]): 28 µM

COc1ccc(-c2coc3cc(O)ccc3c2=O)cc1O [CALYCOSIN]
IC50 (U-937 [1]): 49 µM
IC50 (U-937 [2]): 48 µM
IC50 (U-937 [3]): 43 µM

CC[C@@]1(O)C(=O)OCc2c1cc1n(c2=O)Cc2cc3ccccc3nc2-1 [CAMPTOTHECIN]
IC50 (U-937 [1]): 0.68 µM
IC50 (U-937 [2]): 0.032 µM
IC50 (U-937 [3]): 0.015 µM

CC1(C)C=Cc2c(cc(O)c3c(=O)c(-c4ccc(O)cc4)coc23)O1 [DERRONE]
IC50 (U-937 [1]): 26 µM
IC50 (U-937 [2]): 20 µM
IC50 (U-937 [3]): 13 µM

O=C1C[C@@H](c2ccc(O)c(O)c2)Oc2cc(O)cc(O)c21 [ERIODICTYOL]
IC50 (U-937 [1]): > 100 µM
IC50 (U-937 [2]): > 100 µM
IC50 (U-937 [3]): > 100 µM

COc1ccc([C@@H]2CCc3c(OC)cc(OC)cc3O2)c(O)c1 [ERYCEBENIN E]
IC50 (U-937 [1]): 37 µM
IC50 (U-937 [2]): 4.3 µM
IC50 (U-937 [3]): 2.9 µM

CC(C)(O)[C@@H](O)Cc1c(O)cc2occ(-c3ccc(O)cc3)c(=O)c2c1O [ERYCIBENIN A]
IC50 (U-937 [1]): 46 µM
IC50 (U-937 [2]): 25 µM
IC50 (U-937 [3]): 21 µM

CC(C)(O)[C@@H](O)Cc1c(O)cc(O)c2c(=O)c(-c3ccc(O)cc3)coc12 [ERYCIBENIN B]
IC50 (U-937 [1]): > 100 µM
IC50 (U-937 [2]): > 100 µM
IC50 (U-937 [3]): > 100 µM

COc1ccc2c(c1)OC[C@@]1(OC)c3cc4c(cc3O[C@@H]21)OCO4 [ERYCIBENIN C]
IC50 (U-937 [1]): > 100 µM
IC50 (U-937 [2]): > 100 µM
IC50 (U-937 [3]): > 100 µM

COc1cc([C@H]2Oc3cc(O)ccc3C(=O)[C@@H]2O)ccc1O [ERYCIBENIN D]
IC50 (U-937 [1]): > 100 µM
IC50 (U-937 [2]): > 100 µM
IC50 (U-937 [3]): > 100 µM

COc1ccc([C@@H]2CCc3c(OC)cc(OC)cc3O2)c(OC)c1 [ERYCIBENIN F]
IC50 (U-937 [1]): > 100 µM
IC50 (U-937 [2]): > 100 µM
IC50 (U-937 [3]): > 100 µM

COc1ccc(-c2coc3cc(O)ccc3c2=O)cc1 [FORMONONETIN]
IC50 (U-937 [1]): 50 µM
IC50 (U-937 [2]): 44 µM
IC50 (U-937 [3]): 45 µM

COc1ccc2c(c1)O[C@H]1c3ccc(OC)cc3OC[C@@H]21 [HOMOPTEROCARPIN]
IC50 (U-937 [1]): > 100 µM
IC50 (U-937 [2]): > 100 µM
IC50 (U-937 [3]): > 100 µM

COc1cc(O)cc2c1C(=O)O[C@@H](C)CCCCCCC2 [LASIODIPLODIN]
IC50 (U-937 [1]): 36 µM
IC50 (U-937 [2]): 28 µM
IC50 (U-937 [3]): 20 µM

O=c1cc(-c2ccc(O)c(O)c2)oc2cc(O)cc(O)c12 [LUTEOLIN]
IC50 (U-937 [1]): 36 µM
IC50 (U-937 [2]): 28 µM
IC50 (U-937 [3]): 20 µM

Oc1ccc2c(c1)OC[C@H]1c3cc4c(cc3O[C@@H]21)OCO4 [MAACKIAIN]
IC50 (U-937 [1]): > 100 µM
IC50 (U-937 [2]): > 100 µM
IC50 (U-937 [3]): > 100 µM

O=c1c(-c2ccc(O)c(O)c2)coc2cc(O)cc(O)c12 [OROBOL]
IC50 (U-937 [1]): 73 µM
IC50 (U-937 [2]): > 100 µM
IC50 (U-937 [3]): > 100 µM

CC(=O)O[C@H]1C(=O)[C@@]2(C)[C@H]([C@H](OC(=O)c3ccccc3)[C@]3(O)C[C@H](OC(=O)[C@H](O)[C@@H](NC(=O)c4ccccc4)c4ccccc4)C(C)=C1C3(C)C)[C@]1(OC(C)=O)CO[C@@H]1C[C@@H]2O [PACLITAXEL]
inhibition at 1 µM (HT-1080 [4]): 50.5%
inhibition at 3 µM (HT-1080 [5]): 79.8%
inhibition at 10 µM (HT-1080 [6]): 87.8%
inhibition at 30 µM (HT-1080 [7]): 89.2%
inhibition at 1 µM (HT-1080 [8]): 4.7%
inhibition at 3 µM (HT-1080 [9]): 12.6%
inhibition at 10 µM (HT-1080 [10]): 12.2%
inhibition at 30 µM (HT-1080 [11]): 10.3%
inhibition at 1 µM (HT-1080 [12]): 43.7%
inhibition at 3 µM (HT-1080 [13]): 48.7%
inhibition at 10 µM (HT-1080 [14]): 50%
inhibition at 30 µM (HT-1080 [15]): 50.3%
inhibition at 1 µM (HT-1080 [16]): 65.6%
inhibition at 3 µM (HT-1080 [17]): 79.8%
inhibition at 10 µM (HT-1080 [18]): 81.4%
inhibition at 30 µM (HT-1080 [19]): 79.9%
inhibition at 1 µM (HT-1080 [20]): -0.5%
inhibition at 3 µM (HT-1080 [21]): 10.8%
inhibition at 10 µM (HT-1080 [22]): 12.4%
inhibition at 30 µM (HT-1080 [23]): 10.3%
inhibition at 1 µM (HT-1080 [24]): 46.2%
inhibition at 3 µM (HT-1080 [25]): 64.4%
inhibition at 10 µM (HT-1080 [26]): 70.9%
inhibition at 30 µM (HT-1080 [27]): 70%
inhibition at 1 µM (HT-1080 [28]): 59.8%
inhibition at 3 µM (HT-1080 [29]): 87%
inhibition at 10 µM (HT-1080 [30]): 87.6%
inhibition at 30 µM (HT-1080 [31]): 87.7%

COc1ccc2c(c1)OC[C@H]1c3cc4c(cc3O[C@@H]21)OCO4 [PTEROCARPIN]
IC50 (U-937 [1]): > 100 µM
IC50 (U-937 [2]): > 100 µM
IC50 (U-937 [3]): > 100 µM

COc1cc2c(cc1OC)[C@@H]1COc3cc(O)ccc3[C@@H]1O2 [SECUNDIFLOROL I]
IC50 (U-937 [1]): > 100 µM
IC50 (U-937 [2]): > 100 µM
IC50 (U-937 [3]): > 100 µM

CC(C)=CCc1c(O)cc2occ(-c3ccc(O)cc3)c(=O)c2c1O [WIGHTEONE]
IC50 (U-937 [1]): 28 µM
IC50 (U-937 [2]): 35 µM
IC50 (U-937 [3]): 32 µM
